In data set [1] the test system is SD rats. Briefly: Assay for the facilitatory effect on urinary glucose excretion, Method B (intravenous). The class given is in vivo, rat. The note with it: oral glucose 2 g/kg, 24 hours, per 200 g of body weight. As to the method: (§1) Assay for the Facilitatory Effect on Urinary Glucose Excretion
As experimental animal, overnight fasted SD rats (SLC, male, 7 weeks of age, 180–220 g) were used. A test compound (10 mg) was suspended or dissolved in 300 μL of ethanol and dissolved by adding of 1.2 mL of polyethylene glycol 400 and 1.5 mL of saline and then 3.3 mg/mL solution was prepared. A part of this solution was diluted with the solvent (saline:polyethylene glycol 400:ethanol=5:4:1) and then each solution at the concentration of 3.3, 0.33 or 0.033 (mg/mL) was prepared. After the body weights of the rats were measured, the test compound solution was administrated by intravenous injection to the tail vein at the dose of 3 mL/kg (10, 1 and 0.1 mg/kg). For the control, just only the solvent (saline:polyethylene glycol 400:ethanol=5:4:1) was administrated by intravenous injection to the tail vein at the dose of 3 mL/kg. Immediately after this intravenous administration, 200 g/L glucose solution was orally administered at the dose of 10 mL/kg (2 g/kg). The intravenous administration was performed with 26G needle and 1 mL syringe. The oral administration was performed with gastric tube for rat and 2.5 mL syringe. The head count in one group was 3. Collection of urine was performed in metabolic cage after the glucose administration was finished. The sampling time for collection of urine was 24 hours after the glucose administration. After collection of urine was finished, the urine volume was recorded and the urinary glucose concentration was measured. The glucose concentration was measured with a kit for laboratory test: Glucose B-Test WAKO (Wako Pure Chemical Industries, Ltd.). The amount of urinary glucose excretion in 24 hours per 200 g of body weight was calculated from urine volume, urinary glucose concentration and body weight.

Data set [2] has as its system ICR mice. Briefly: Acute toxicity test, Method B (subcutaneous). It is filed as in vivo. The following applies: 600 mg/kg subcutaneous, male ICR mice, 5 animals, observation until 24 hours. As to the method: By adding of the solvent (saline:polyethylene glycol 400:ethanol=5:4:1) to the test compound, 200 mg/mL suspension was prepared. As experimental animal, male 5 weeks of age ICR mice fasted for 4 hours (Clea Japan, 26–33 g, 5 animals in each group) were used. The test suspension described above was subcutaneously administrated to the experimental animals described above at the dose of 3 mL/kg (600 mg/kg) and then observation was performed until 24 hours after the administration.

Data set [3] concerns SD rats. The experiment in a line: Assay for the facilitatory effect on urinary glucose excretion, Method A (subcutaneous). It is filed as in vivo, rat. The following applies: oral glucose 2 g/kg, 4 hours, per 1 body. As to the method:
as §1
As experimental animal, overnight fasted SD rats (SLC, male, 5 weeks of age, 120–150 g) were used. Test compound (25.40 mg) was suspended in 762 μL of ethanol and dissolved by adding of 3.048 mL of polyethylene glycol 400 and 3.81 mL of saline and then 3.3 mg/mL solution was prepared. A part of this solution was diluted with the solvent (saline:polyethylene glycol 400:ethanol=5:4:1) and then each solution at the concentration of 3.3, 1 or 0.33 (mg/mL) was prepared. Each of these solutions was subcutaneously administrated to the rats at the dose of 3 mL/kg (10, 3 and 1 mg/kg). For the control, just only the solvent (saline:polyethylene glycol 400:ethanol=5:4:1) was subcutaneously administrated at the dose of 3 mL/kg. Immediately after this subcutaneous administration, 200 g/L glucose solution was orally administered at the dose of 10 mL/kg (2 g/kg). The subcutaneous administration was performed with 26G needle and 1 mL syringe. The oral administration was performed with gastric tube for rat and 2.5 mL syringe. The head count in one group was 3. Collection of urine was performed in metabolic cage after these administrations were finished. The sampling time for collection of urine was 4 hours after the glucose administration. After collection of urine was finished, the urine volume was recorded and the urinary glucose concentration was measured. The glucose concentration was measured with a kit for laboratory test: Glucose B-Test WAKO (Wako Pure Chemical Industries, Ltd.). The amount of urinary glucose excretion in 4 hours per 1 body was calculated from urine volume and urinary glucose concentration.

For data set [4], the system named is ICR mice. Briefly: Acute toxicity test, Method A (oral). The note with it: 1000 mg/kg oral, male ICR mice, 5 animals, observation until 24 hours. The class given is in vivo. As to the method: By adding of 0.5% sodium carboxymethylcellulose solution to the test compound, 100 mg/mL suspension was prepared. As experimental animal, male 6–7 weeks of age ICR mice fasted for 4 hours (Clea Japan, 28–33 g, 5 animals in each group) were used. The test suspension described above was orally administrated to the experimental animals described above at the dose of 10 mL/kg (1000 mg/kg) and then observation was performed until 24 hours after the administration.

For data set [5], the target named is T1, human SGLT2 (Homo sapiens, UniProt P31639, I433V).
T1 construct: expressed in transfected cells; host or cells: COS-7 cells (RIKEN CELL BANK RCB0539), transient electroporation of plasmid KL29
T1 sequence (P31639 1-672 I433V): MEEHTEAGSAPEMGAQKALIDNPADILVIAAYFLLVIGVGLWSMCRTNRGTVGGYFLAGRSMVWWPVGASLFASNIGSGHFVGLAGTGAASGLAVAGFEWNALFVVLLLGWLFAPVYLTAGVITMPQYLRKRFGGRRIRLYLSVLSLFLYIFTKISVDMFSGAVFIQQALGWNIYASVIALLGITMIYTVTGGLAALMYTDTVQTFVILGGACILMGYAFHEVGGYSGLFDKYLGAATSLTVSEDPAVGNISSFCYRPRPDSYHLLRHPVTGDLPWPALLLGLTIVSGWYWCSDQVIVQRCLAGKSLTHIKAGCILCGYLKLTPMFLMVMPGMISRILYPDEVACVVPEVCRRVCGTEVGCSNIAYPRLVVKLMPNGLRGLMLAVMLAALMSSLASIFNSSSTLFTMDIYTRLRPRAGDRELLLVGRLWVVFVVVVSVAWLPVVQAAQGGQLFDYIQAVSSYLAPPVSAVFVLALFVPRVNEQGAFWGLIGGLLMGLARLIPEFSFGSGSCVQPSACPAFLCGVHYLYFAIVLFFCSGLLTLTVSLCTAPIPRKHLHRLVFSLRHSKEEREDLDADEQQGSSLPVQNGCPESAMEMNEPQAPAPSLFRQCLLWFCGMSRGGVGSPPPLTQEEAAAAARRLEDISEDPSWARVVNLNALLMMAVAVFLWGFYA
Briefly: Assay for inhibitory effect on human SGLT2 activity (uptake of methyl-α-D-glucopyranoside in COS-7 cells expressing transiently human SGLT2). It is filed as cell-based. As to the method: Assay for Inhibitory Effect on Human SGLT2 Activity
1) Construction of the Plasmid Vector Expressing Human SGLT2
Preparation of the cDNA library for PCR amplification was performed by reverse transcription of a total RNA deprived from human kidney (Ori gene) with oligo dT as the primer, using Super Script preamplification system (Gibco-BRL: LIFE TECHNOLOGIES). The DNA fragment coding for human SGLT2 was amplified by the PCR reaction, in which the human kidney cDNA library described above was used as the template and the following oligo nucleotides 0702F and 0712R, presented as sequence number 1 and 2 respectively, were used as the primers. The amplified DNA fragment was ligated into pCR (Invitrogen), a vector for cloning, according to standard method of the kit. The Escherichia coli HB101 was transformed according to usual method and then selection of the transformants was performed on the LB agar medium containing 50 μg/mL of kanamycin. […] After plasmid DNA was extracted and purified from this transformant, the base sequence of the DNA fragment inserted at the multi-cloning sites of the vector pcDNA3.1 (−) Myc/His-B was analyzed. […]

Data set [6] concerns normal mice. The note with it: J. Med. Chem., Vol. 39, pp. 3920–3928 (1996); cited from earlier work.

As usually defined, the IC50 is the concentration that inhibits the measured activity by half.

As to `Cc1[nH]nc(O[C@@H]2O[C@H](CO)[C@@H](O)[C@H](O)[C@H]2O)c1Cc1ccc(OC(C)C)cc1` [Example 35, 3-(β-D-Glucopyranosyloxy)-4-[(4-isopropoxyphenyl)methyl]-5-methyl-1H-pyrazole], the “Amount of Urinary Glucose Excretion” value in data set [1] (0.1 mg/kg intravenous) is listed as 16 mg; in data set [1] (1 mg/kg intravenous) it was 74 mg; in data set [1] (10 mg/kg intravenous), 188 mg. The Death number in data set [2] is listed as 0/5.

`Cc1[nH]nc(O[C@@H]2O[C@H](CO)[C@@H](O)[C@H](O)[C@H]2O)c1Cc1ccc(C(C)C)cc1` [Example 45, 3-(β-D-Glucopyranosyloxy)-4-[(4-isopropylphenyl)methyl]-5-methyl-1H-pyrazole]: the “Amount of Urinary Glucose Excretion” value in data set [3] (1 mg/kg subcutaneous) worked out at 22.1 mg; in data set [3] (3 mg/kg subcutaneous), 83.2 mg; in data set [3] (10 mg/kg subcutaneous), 153.3 mg; in data set [1] (0.1 mg/kg intravenous) it was 2 mg; in data set [1] (1 mg/kg intravenous), 45 mg; in data set [1] (10 mg/kg intravenous) it was 132 mg. The Death number in data set [4] is reported as 0/5.

Regarding `CSc1ccc(Cc2c(C(F)(F)F)[nH][nH]c2=O)cc1` [WAY-123783], in data set [5] (COS-7 cells expressing transiently human SGLT2, uptake of methyl-α-D-(U-14C)glucopyranoside, 37° C., 2 hours), the IC50 was above 100 µM. Moreover, the “inhibitory activity in human SGLT2 (in words)” value in data set [5] (assay for inhibitory effect on human SGLT2 activity) is “extremely weak inhibitory activity”. The “amount of excreted glucose” value in data set [6] is recorded as “increased”.

These data come from patent US7056892B2, “Glucopyranosyloxypyrazole derivatives, medicinal compositions containing the same and intermediates in the production thereof” (Kissei Pharmaceutical Co., Ltd., priority 1999, dated 2006).
